Source: ChEMBL document CHEMBL4229455, “Synthesis and anticancer activity of novel bisindolylhydroxymaleimide derivatives with potent GSK-3 kinase inhibition” (Bioorg Med Chem, 2018)

How the values were obtained:
Type in all cases: functional
[1] = system: HL-60(TB); assay: Cytotoxicity against human HL-60(TB) cells assessed as cell growth at 0.01 uM after 48 hrs by SRB assay relative to control; details: HL-60, 48 h, read-out: Activity
[2] = system: NCI-H226; assay: Cytotoxicity against human NCI-H226 cells assessed as cell growth at 0.01 uM after 48 hrs by SRB assay relative to control; details: NCI-H226, 48 h, read-out: Activity
[3] = system: NCI-H460; assay: Cytotoxicity against human NCI-H460 cells assessed as cell growth at 0.01 uM after 48 hrs by SRB assay relative to control; details: NCI-H460, 48 h, read-out: Activity
[4] = system: NCI-H522; assay: Cytotoxicity against human NCI-H522 cells assessed as cell growth at 0.01 uM after 48 hrs by SRB assay relative to control; details: NCI-H522, 48 h, read-out: Activity
[5] = system: HCT-15; assay: Cytotoxicity against human HCT15 cells assessed as cell growth at 0.01 uM after 48 hrs by SRB assay relative to control; details: HCT-15, 48 h, read-out: Activity
[6] = system: HT-29; assay: Cytotoxicity against human HT-29 cells assessed as cell growth at 0.01 uM after 48 hrs by SRB assay relative to control; details: HT-29, 48 h, read-out: Activity
[7] = system: SF-268; assay: Cytotoxicity against human SF268 cells assessed as cell growth at 0.01 uM after 48 hrs by SRB assay relative to control; details: SF-268, 48 h, read-out: Activity
[8] = system: SNB-19; assay: Cytotoxicity against human SNB19 cells assessed as cell growth at 0.01 uM after 48 hrs by SRB assay relative to control; details: SNB-19, 48 h, read-out: Activity
[9] = system: SK-MEL-2; assay: Cytotoxicity against human SK-MEL-2 cells assessed as cell growth at 0.01 uM after 48 hrs by SRB assay relative to control; details: SK-MEL-2, 48 h, read-out: Activity
[10] = system: SK-MEL-28; assay: Cytotoxicity against human SK-MEL-28 cells assessed as cell growth at 0.01 uM after 48 hrs by SRB assay relative to control; details: SK-MEL-28, 48 h, read-out: Activity
[11] = system: IGROV-1; assay: Cytotoxicity against human IGROV1 cells assessed as cell growth at 0.01 uM after 48 hrs by SRB assay relative to control; details: IGROV-1, 48 h, read-out: Activity
[12] = system: SN12C; assay: Cytotoxicity against human SN12C cells assessed as cell growth at 0.01 uM after 48 hrs by SRB assay relative to control; details: read-out: Activity
[13] = system: PC-3; assay: Cytotoxicity against human PC3 cells assessed as cell growth at 0.01 uM after 48 hrs by SRB assay relative to control; details: PC-3, 48 h, read-out: Activity
[14] = system: MDA-MB-231; assay: Cytotoxicity against human MDA-MB-231 cells assessed as cell growth at 0.01 uM after 48 hrs by SRB assay relative to control; details: MDA-MB-231, 48 h, read-out: Activity
[15] = system: CCRF-CEM; assay: Cytotoxicity against human CCRF-CEM cells assessed as cell growth at 0.1 uM after 48 hrs by SRB assay relative to control; details: read-out: Activity
[16] = system: SNB-75; assay: Cytotoxicity against human SNB75 cells assessed as cell growth at 0.1 uM after 48 hrs by SRB assay relative to control; details: SNB-75, 48 h, read-out: Activity
[17] = system: MDA-MB-435; assay: Cytotoxicity against human MDA-MB-435 cells assessed as cell growth at 0.1 uM after 48 hrs by SRB assay relative to control; details: MDA-MB-435, 48 h, read-out: Activity
[18] = system: A498; assay: Cytotoxicity against human A498 cells assessed as cell growth at 0.1 uM after 48 hrs by SRB assay relative to control; details: A498, 48 h, read-out: Activity
[19] = system: SN12C; assay: Cytotoxicity against human SN12C cells assessed as cell growth at 0.1 uM after 48 hrs by SRB assay relative to control; details: read-out: Activity
[20] = system: Hs-578T; assay: Cytotoxicity against human Hs 578T cells assessed as cell growth at 0.1 uM after 48 hrs by SRB assay relative to control; details: read-out: Activity
[21] = system: SF-268; assay: Cytotoxicity against human SF268 cells assessed as cell growth at 1 uM after 48 hrs by SRB assay relative to control; details: SF-268, 48 h, read-out: Activity
[22] = system: Malme-3M; assay: Cytotoxicity against human MALME-3M cells assessed as cell growth at 1 uM after 48 hrs by SRB assay relative to control; details: read-out: Activity
[23] = system: OVCAR-5; assay: Cytotoxicity against human OVCAR5 cells assessed as cell growth at 1 uM after 48 hrs by SRB assay relative to control; details: OVCAR-5, 48 h, read-out: Activity
[24] = system: OVCAR-8; assay: Cytotoxicity against human OVCAR8 cells assessed as cell growth at 1 uM after 48 hrs by SRB assay relative to control; details: OVCAR-8, 48 h, read-out: Activity
[25] = system: UO-31; assay: Cytotoxicity against human UO31 cells assessed as cell growth at 1 uM after 48 hrs by SRB assay relative to control; details: UO-31, 48 h, read-out: Activity
[26] = system: MCF7; assay: Cytotoxicity against human MCF7 cells assessed as cell growth at 1 uM after 48 hrs by SRB assay relative to control; details: MCF7, 48 h, read-out: Activity
[27] = system: HL-60(TB); assay: Cytotoxicity against human HL-60(TB) cells assessed as cell growth at 100 uM after 48 hrs by SRB assay relative to control; details: HL-60, 48 h, read-out: Activity
[28] = system: MOLT-4; assay: Cytotoxicity against human MOLT4 cells assessed as cell growth at 100 uM after 48 hrs by SRB assay relative to control; details: MOLT-4, 48 h, read-out: Activity
[29] = system: COLO 205; assay: Cytotoxicity against human COLO205 cells assessed as cell growth at 100 uM after 48 hrs by SRB assay relative to control; details: COLO 205, 48 h, read-out: Activity
[30] = system: UACC-257; assay: Cytotoxicity against human UACC257 cells assessed as cell growth at 100 uM after 48 hrs by SRB assay relative to control; details: UACC-257, 48 h, read-out: Activity
[31] = system: MDA-MB-468; assay: Cytotoxicity against human MDA-MB-468 cells assessed as cell growth at 100 uM after 48 hrs by SRB assay relative to control; details: MDA-MB-468, 48 h, read-out: Activity
[32] = system: MOLT-4; assay: Cytotoxicity against human MOLT4 cells after 48 hrs by SRB assay; details: MOLT-4, 48 h; for CC50: read-out: LC50 (the source's name)
[33] = system: SK-MEL-28; assay: Cytotoxicity against human SK-MEL-28 cells after 48 hrs by SRB assay; details: SK-MEL-28, 48 h
[34] = system: OVCAR-3; assay: Cytotoxicity against human OVCAR3 cells after 48 hrs by SRB assay; details: OVCAR-3, 48 h
[35] = system: 786-0; assay: Cytotoxicity against human 786-O cells after 48 hrs by SRB assay; details: 786-0, 48 h

**Q.** With N#CCCCCCn1cc(C2=C(c3cn(CCCCCC#N)c4ccccc34)C(=O)N(O)C2=O)c2ccccc21 as the compound, how does the growth at 0.01 µM [1] read?
**A.** 98%

**Q.** What about the growth at 0.01 µM [2] of the same compound?
**A.** 95%

**Q.** What about the growth at 0.01 µM [3] of the same compound?
**A.** 104%

**Q.** What about the growth at 0.01 µM [4] of the same compound?
**A.** 89%

**Q.** And the growth at 0.01 µM [5]?
**A.** 93%

**Q.** And the growth at 0.01 µM [6]?
**A.** 100%

**Q.** And the growth at 0.01 µM [7]?
**A.** 97%

**Q.** And the growth at 0.01 µM [8]?
**A.** 97%

**Q.** What about the growth at 0.01 µM [9] of the same compound?
**A.** 100%

**Q.** And the growth at 0.01 µM [10]?
**A.** 102%

**Q.** And the growth at 0.01 µM [11]?
**A.** 104%

**Q.** What about the growth at 0.01 µM [12] of the same compound?
**A.** 97%

**Q.** And the growth at 0.01 µM [13]?
**A.** 93%

**Q.** And the growth at 0.01 µM [14]?
**A.** 96%

**Q.** What about the growth at 0.1 µM [15] of the same compound?
**A.** 85%

**Q.** What about the growth at 0.1 µM [16] of the same compound?
**A.** 72%

**Q.** And the growth at 0.1 µM [17]?
**A.** 95%

**Q.** What about the growth at 0.1 µM [18] of the same compound?
**A.** 82%

**Q.** What about the growth at 0.1 µM [19] of the same compound?
**A.** 94%

**Q.** What about the growth at 0.1 µM [20] of the same compound?
**A.** 91%

**Q.** And the growth at 1 µM [21]?
**A.** 99%

**Q.** And the growth at 1 µM [22]?
**A.** 107%

**Q.** What about the growth at 1 µM [23] of the same compound?
**A.** 91%

**Q.** And the growth at 1 µM [24]?
**A.** 95%

**Q.** What about the growth at 1 µM [25] of the same compound?
**A.** 59%

**Q.** And the growth at 1 µM [26]?
**A.** 95%

**Q.** And the growth at 100 µM [27]?
**A.** -27%

**Q.** What about the growth at 100 µM [28] of the same compound?
**A.** 2%

**Q.** And the growth at 100 µM [29]?
**A.** -22%

**Q.** And the growth at 100 µM [30]?
**A.** -19%

**Q.** What about the growth at 100 µM [31] of the same compound?
**A.** -15%

**Q.** What about the GI50 [32] of the same compound?
**A.** 2.93 µM

**Q.** What about the TGI [32] of the same compound?
**A.** > 100 µM

**Q.** What about the CC50 [32] of the same compound?
**A.** > 100 µM

**Q.** And the GI50 [33]?
**A.** 6.07 µM

**Q.** And the LC50 [33]?
**A.** > 100 µM

**Q.** And the TGI [33]?
**A.** > 100 µM

**Q.** And the GI50 [34]?
**A.** 3.81 µM

**Q.** And the LC50 [34]?
**A.** > 100 µM

**Q.** What about the TGI [34] of the same compound?
**A.** 19 µM

**Q.** What about the GI50 [35] of the same compound?
**A.** 10.3 µM

**Q.** And the LC50 [35]?
**A.** > 100 µM

**Q.** What about the TGI [35] of the same compound?
**A.** > 100 µM

**Q.** Cn1cc(C2=C(c3cn(C)c4ncccc34)C(=O)NC2=O)c2ccccc21 was tested. Which growth at 0.01 µM [1] did it give?
**A.** 106%

**Q.** And the growth at 0.01 µM [2]?
**A.** 99%

**Q.** What about the growth at 0.01 µM [3] of the same compound?
**A.** 97%

**Q.** And the growth at 0.01 µM [4]?
**A.** 90%

**Q.** What about the growth at 0.01 µM [5] of the same compound?
**A.** 100%

**Q.** And the growth at 0.01 µM [6]?
**A.** 109%

**Q.** And the growth at 0.01 µM [7]?
**A.** 103%

**Q.** And the growth at 0.01 µM [8]?
**A.** 92%

**Q.** What about the growth at 0.01 µM [9] of the same compound?
**A.** 109%

**Q.** What about the growth at 0.01 µM [10] of the same compound?
**A.** 97%

**Q.** And the growth at 0.01 µM [11]?
**A.** 98%

**Q.** And the growth at 0.01 µM [12]?
**A.** 89%

**Q.** What about the growth at 0.01 µM [13] of the same compound?
**A.** 99%

**Q.** And the growth at 0.01 µM [14]?
**A.** 99%

**Q.** What about the growth at 0.1 µM [15] of the same compound?
**A.** 81%

**Q.** And the growth at 0.1 µM [16]?
**A.** 65%

**Q.** And the growth at 0.1 µM [17]?
**A.** 93%

**Q.** And the growth at 0.1 µM [18]?
**A.** 73%

**Q.** What about the growth at 0.1 µM [19] of the same compound?
**A.** 87%

**Q.** And the growth at 0.1 µM [20]?
**A.** 81%

**Q.** And the growth at 1 µM [21]?
**A.** 101%

**Q.** And the growth at 1 µM [22]?
**A.** 110%

**Q.** What about the growth at 1 µM [23] of the same compound?
**A.** 103%

**Q.** What about the growth at 1 µM [24] of the same compound?
**A.** 95%

**Q.** What about the growth at 1 µM [25] of the same compound?
**A.** 75%

**Q.** And the growth at 1 µM [26]?
**A.** 73%

**Q.** And the growth at 100 µM [27]?
**A.** -28%

**Q.** And the growth at 100 µM [28]?
**A.** -24%

**Q.** And the growth at 100 µM [29]?
**A.** -65%

**Q.** And the growth at 100 µM [30]?
**A.** -12%

**Q.** And the growth at 100 µM [31]?
**A.** -56%

**Q.** And the GI50 [32]?
**A.** 3.53 µM

**Q.** And the TGI [32]?
**A.** 17.7 µM

**Q.** And the CC50 [32]?
**A.** > 100 µM

**Q.** And the GI50 [33]?
**A.** 3.05 µM

**Q.** What about the TGI [33] of the same compound?
**A.** 17.7 µM

**Q.** What about the GI50 [34] of the same compound?
**A.** 4.49 µM

**Q.** And the TGI [34]?
**A.** 36.8 µM

**Q.** And the GI50 [35]?
**A.** 3.59 µM

**Q.** What about the TGI [35] of the same compound?
**A.** 23.7 µM
